Experimental data as given in patent publication US9131716B2, “Use of neoflavonoids for flavor modification” (SYMRISE AG, priority 2011, dated 2015).
Marks after values point to notes of the source that are not given here.

Tests used:
[1] = Reduction of bitterness of a theobromine solution, panel of experts; format: in vivo; settings: 300 ppm theobromine; for Impression of bitterness (1-10) b) with test substance: scale 1-10
[2] = Reduction of bitterness of a caffeine solution, panel of experts; format: in vivo; settings: 500 ppm caffeine; for Impression of bitterness (1-10) b) with test substance: scale 1-10
From the text: (§1) In order to quantify the reduction (i.e. the masking or decrease) of the impression of bitterness in a sample, the bitterness of a solution containing 500 ppm caffeine or 200 ppm theobromine or 100 ppm naringin or 250 ppm salicin was compared by a panel of experts in each case with a sample that contained 500 ppm caffeine or 200 ppm theobromine or 100 ppm naringin or 250 ppm salicin and additionally the amount stated in each case of a substance to be assessed (with respect to capacity for reducing bitterness) (classification: 1 [not bitter] through 10 [extremely bitter]). The evaluation, i.e. calculation of the reduction (in %) of the impression of bitterness, was based in each case on the mean values of the appraisals of the panel of experts.

[3] = Reduction of bitterness of a salicin solution, panel of experts; format: in vivo; settings: 250 ppm salicin, 50 ppm test substance
From the text: as §1

[4] = Reduction of bitterness of a naringin solution, panel of experts; format: in vivo; settings: 100 ppm naringin
From the text: as §1

Caco-2 cells = settings: from Chem. Pharm. Bull. 2010, 58, 242-246; cited from earlier work
BGC823 cancer cell line = settings: from CN 101906090; cited from earlier work
[5] = Reduction of bitterness/astringency of an EGCG solution as a function of time, panel of experts; format: in vivo; settings: 750 ppm EGCG + 125 ppm ascorbic acid, 50 ppm test substance
From the text: In order to quantify the reduction (i.e. the masking or decrease) of the impression of bitterness or astringency in a sample over a specified course of time, the bitterness, or astringency of a solution containing 750 ppm epigallocatechin gallate (EGCG) and 125 ppm ascorbic acid was compared by a panel of experts in each case with a sample that contained 750 ppm epigallocatechin gallate, 125 ppm ascorbic acid and additionally the amount stated in each case of a substance to be assessed (with respect to capacity for reducing bitterness), in this case a racemic mixture of compounds (7) and (8) (classification: 1 [not bitter] through 10 [extremely bitter]; or 1 [not astringent] through 10 [extremely astringent]). […] The samples were assessed by the members of the panel one after another after neutralization. The evaluation, i.e. calculation of the reduction (in %) of the impression of bitterness/astringency was based at each measurement time point in each case on the mean values of the appraisals of the panel of experts for the epigallocatechin gallate solution and the sample to be compared, containing epigallocatechin gallate and a substance to be assessed.

[6] = 25 ppm test substance, scale 1-10

Structure (SMILES): COc1cc(C2CC(=O)Oc3cc(O)cc(O)c32)ccc1O (racemic) [(5) + (6), 5,7-dihydroxy-4-(4-hydroxy-3-methoxyphenyl)chroman-2-one]
- % reduction of the impression of bitterness ([1]; 25 ppm test substance): 30.3%
- Impression of bitterness (1-10) b) with test substance ([1]; 25 ppm test substance): 3.1 ± 1.6
- % reduction of the impression of bitterness ([2]; 50 ppm test substance): 23.5%
- Impression of bitterness (1-10) b) with test substance ([2]; 50 ppm test substance): 3.0 ± 1.3
- % reduction of the impression of bitterness [3]: 11.1%
- Impression of bitterness (1-10) b) with test substance ([3]; scale 1-10): 5.9 ± 2.5
- % reduction of the impression of bitterness ([4]; 25 ppm test substance): 49.0%
- Impression of bitterness (1-10) b) with test substance [4, 6]: 3.1 ± 1.4

Structure (SMILES): COc1cc(C2CC(=O)Oc3cc(O)cc(OC)c32)cc(OC)c1OC (centres unmarked) [(40)]
- cytotoxicity against Caco-2 cells (Caco-2 cells): strong cytotoxicity

Structure (SMILES): COc1cc(C2CC(=O)Oc3cc(O)ccc32)ccc1O (racemic) [(23) + (24), 7-hydroxy-4-(4-hydroxy-3-methoxyphenyl)chroman-2-one]
- % reduction of the impression of bitterness ([1]; 25 ppm test substance): 22.4%
- Impression of bitterness (1-10) b) with test substance ([1]; 25 ppm test substance): 3.5 ± 1.6

Structure (SMILES): O=C1CC(c2ccccc2O)c2c(O)cc(O)cc2O1 (racemic) [(1) + (2), 5,7-dihydroxy-4-(2-hydroxyphenyl)chroman-2-one]
- % reduction of the impression of bitterness ([4]; 5 ppm test substance): 31.7%
- Impression of bitterness (1-10) b) with test substance ([4]; 5 ppm test substance, scale 1 [not bitter] through 10 [extremely bitter]): 3.7 ± 2.6

Structure (SMILES): O=C1CC(c2ccc(O)cc2)c2ccc(O)cc2O1 (racemic) [(17) + (18), 7-hydroxy-4-(4-hydroxyphenyl)chroman-2-one]
- % reduction of the impression of bitterness ([4]; 25 ppm test substance): 44.3%
- Impression of bitterness (1-10) b) with test substance [4, 6]: 3.0 ± 1.6

Structure (SMILES): COc1ccc(C2CC(=O)Oc3cc(O)ccc32)cc1O (centres unmarked) [(39)]
- effectiveness against the BGC823 cancer cell line (BGC823 cancer cell line): effective

Structure (SMILES): O=C1CC(c2ccc(O)cc2)c2c(O)cc(O)cc2O1 (racemic) [(7) + (8), 5,7-dihydroxy-4-(4-hydroxyphenyl)chroman-2-one]
- % reduction of the impression of bitterness ([1]; 10 ppm test substance): 21.7%
- Impression of bitterness (1-10) b) with test substance ([1]; 10 ppm test substance): 3.6 ± 1.5
- % reduction of the impression of bitterness ([2]; 25 ppm test substance): 15.5%
- Impression of bitterness (1-10) b) with test substance ([2]; 25 ppm test substance): 3.4 ± 1.4
- % reduction of the impression of bitterness ([4]; 25 ppm test substance): 48.6%
- Impression of bitterness (1-10) b) with test substance [4, 6]: 2.9 ± 1.9
- % reduction of the impression of astringency ([5]; time 0 s): −1%
- % reduction of the impression of bitterness ([5]; time 0 s): −14%
- % reduction of the impression of astringency ([5]; time 10 s): −7%
- % reduction of the impression of bitterness ([5]; time 10 s): −22%*
- % reduction of the impression of astringency ([5]; time 30 s): −7%
- % reduction of the impression of bitterness ([5]; time 30 s): −25%*
- % reduction of the impression of astringency ([5]; time 50 s): −19%
- % reduction of the impression of bitterness ([5]; time 50 s): −35%*
- % reduction of the impression of astringency ([5]; time 70 s): −15%
- % reduction of the impression of bitterness ([5]; time 70 s): −29%
